Reference: patent US20220273926A1, “DRUG DELIVERY USING MICRONEEDLE ARRAYS” (BOARD OF REGENTS OF THE UNIVERSITY OF NEBRASKA, priority 2019, published 2022)
Entries after “also recorded” stand apart in the source; their conditions may differ. Where two headings read alike, the source gives them in different places.

Key:
[1] = Cefazolin release from thermo-responsive alginate/PNIPAM patch with heater; type: physicochemical; conditions: PNIPAM carriers in alginate patch, heat applied; over 1 h
Description: To minimize the thermal contact resistance between the microheater and the hydrogel layer, the hydrogel was directly cast on top of the heater. Chronic wounds are known for their high rate of exudate generation and thus exudate management is important in the proper function of the sensors and drug delivery modules. The utilized alginate-based hydrogels are known for high water uptake and swelling ratios and have been used in engineering wet wound dressings. In addition, since the sensors are in direct contact with the skin, the swelling of the hydrogels is not expected to affect the readout. To visualize the drug release, rhodamine B was loaded into PNIPAM particles and the system was heated while being monitored under a microscope. […] After applying heat to the alginate patch, the cefazolin release profile was measured over time. […] To assess the possibility of releasing drugs in a dynamic fashion, heat was applied periodically (30 min on, 30 min off) and the drug release amount was determined. […]
Drug Release with Integrated Heaters: Alginate hydrogel with embedded drug microcarriers was attached on the surface of the microheater while 200 μL PBS was added into the plate and electrical voltage was applied to generate heat. The drug released into the solution was evaluated using plate reader.

[2] = after 180 min, target 20 μg/mL
Description: The intradermal drug delivery kinetics were further evaluated by developing an in vitro model mimicking the structure of wounds in which eschar and granulation tissue separates the endothelial cells from the outside environment. This model, illustrated schematically in FIG. 2a, consisted of a cell culture insert with a porous membrane covered by agarose (3% w/v) with ˜2 mm thickness, and the bottom well represented the environment of endothelial cells.
Assessment of release kinetics: To mimic the chronic wound tissue, 12-well cell culture inserts were filled with 150 μL of 3% (w/v) agarose. […] Inserts were divided into 3 groups (4 replicate/group) with respect to the method of delivery, including topical, MNA, and LJI. To measure the concentration of the delivered solution, at each time point 100 μL was removed and then replaced with the same volume of fresh PBS. After collecting all samples, the concentration was measured by a plate reader (Cytation 5, BioTek) followed by data analysis to extract the related release graphs. In the case of BSA, measurement process was followed based on manufacturer's protocol.

keratinocytes = assay: Scratch test assay on keratinocytes contaminated with S. aureus; type: cell-based, human; conditions: keratinocyte monolayer contaminated with S. aureus
Procedure: A standard scratch test assay was used to evaluate the cell migration in presence of bacteria. […] To perform this experiment, the scratch was created over a monolayer of the confluent keratinocytes, which were contaminated with S. aureus in advance. Three groups were used for this set of experiments: (1) cefazolin powder as a positive control, (2) alginate without antibiotic loading as a negative control, and (3) alginate containing cefazolin.
Keratinocytes (1×10^5) were seeded and cultured in a six-well plate and kept overnight to make a confluent monolayer overnight. The 1 mm wide gap scratch was then created onto the monolayer with a 200 μL pipette tip, and floating cells were removed by twice washing with PBS. After the line scratches, 2 mL of DMEM was added for each group. To detect the efficacy of treatments on cell migration, samples were continually imaged for 0, 8, 24, and 48 h. Images of the monolayer were taken by a microscope and cell migration activity was evaluated as the migration distance from the edges of the scratch toward the center of it using Image J software (NIH, Bethesda, Md., USA). For each well, ten images were taken and selected randomly. Experiments were done independently in triplicate.

[3] = Drug adsorption to the bandage: solution perfused through the MNAs; type: physicochemical; conditions: perfusion through bandage and MNAs; BSA 54 ng/mL, cefazolin 16 μg/mL
Procedure: Once the system was characterized, the efficiency of the bandage in drug delivery was evaluated. Initially, the potential drug adsorption to the engineered bandage was to be tested. […] The solution was then collected at different time points after perfusion through the MNAs and the concentration of the drugs determined using a total protein assay (for BSA) and UV-Vis spectrophotometry (for cefazolin).
Drug Delivery Characterization: The potential protein and drug adsorption by the bandage, tubing, and MNAs were investigated by perfusing a solution with known concentrations of cefazolin salt and BSA. 150 μL of the delivered solution was collected at different time points and the concentrations of cefazolin and BSA were determined by measuring the solution absorbance for cefazolin and BCA protein assay kit for BSA.

drug released [1]: about 80%
delivered into the bottom chamber (overall efficiency of delivery) ([2]; LJI): more than 90%
delivered into the bottom chamber (overall efficiency of delivery) ([2]; MNAs): ~65%
delivered into the bottom chamber (overall efficiency of delivery) ([2]; topical (TOP)): ~25%
Compound: Cc1nnc(SCC2=C(C(=O)O)N3C(=O)[C@@H](NC(=O)Cn4cnnn4)[C@H]3SC2)s1 [cefazolin]
cell migration in scratch assay (keratinocytes): rapid migration toward the opening area was observed
temporal changes in the drug concentration within the perfused solution [3]: not statistically significant; also recorded: insignificant change in concentration
